Measurements from paper PMC9081329, “Pharmacokinetics, Mass Balance, Excretion, and Tissue Distribution of Plasmalogen Precursor PPI-1011” (Frontiers in Cell and Developmental Biology, 2022).

Test: Repeat dose tissue distribution study (QWBA, LSC of blood and plasma), 15 daily doses
Format: in vivo, Sprague-Dawley rats
Experimental: Three male rats were administered [^14C]PPI-1011 at 100 mg/kg (100 μCi/kg) once daily for 15 days. One rat was sacrificed at each of the following time points after the administration of the day 15 dose: 24, 48, and 96 h. Terminal blood was collected by cardiac puncture directly into tubes with K2EDTA, an aliquot was stored at 4°C until LSC was performed for radioactivity, while the remaining blood was processed to plasma and stored at −20°C until LSC. Following blood collection, the carcasses were frozen in a cold bath with hexanes and dry ice for at least 8 min and then dried and stored at −70°C for at least 12 h. The carcasses were transferred to a −20°C freezer for at least 12 h before embedding.
QWBA was used to determine radioactivity concentrations in the caecum (contents and mucosa), large intestine (contents and mucosa), small intestine (contents and mucosa), stomach (contents and mucosa), brain, choroid plexus, spinal cord, bone, skin, adrenal gland, pineal body, pituitary gland, thyroid gland, liver, kidney (cortex, medulla and whole kidney), urinary bladder (contents and wall), brown fat, white fat, eye (lens, uveal tract and whole eye), epididymis, prostate gland, testis, ovary, uterus, lung, exorbital lachrymal gland, Harderian gland, pancreas, salivary gland, skeletal muscle, myocardium, cardiac blood, bone marrow, lymph node, spleen, and thymus. As well, LSC was used to determine the total radioactivity in the whole blood and plasma.
The whole-body cryosectioning technique described by ([Ullberg, 1977]) was the basis for embedding and cryosectioning the rats assigned to this study. Each frozen carcass was shaved, and then the limbs and tail were removed prior to embedding. Chilled (4°C) 3% CMC (low viscosity) was utilized to provide a firm support of reinforced ice around each rat and for a secure attachment to the microtome stage. Upon thorough freezing of the embedding medium surrounding each rat, the frozen CMC block was removed from the freezing bath and four 3/8 inch holes were drilled into the block. One cryosection quality control standard (CQCS) was prepared with a known amount of radioactivity and at least 1 ml aliquots were added to each of the four drilled holes. CQCS data were utilized to evaluate the overall performance of the QWBA assay.
Each frozen rat was sagittally trimmed (50–100 μm) at −20°C until exposure of a few target tissues employing a Leica Cryomacrocut heavy-duty microtome (Leica Microsystems Inc.,). Disposable stainless steel Feather type H45L knives (Feather Safety Razor Co., Ltd.) were utilized for trimming and sectioning each frozen rat. Several thinner sections (50 μm) were discarded prior to obtaining multiple 50 μm sections at various cryosectioning levels for QWBA analysis. Upon the collection of at least 60 target tissues in multiple cryosectioning levels, the cryosections were kept in the Cryomacrocut cryochamber for a minimum of 18 h for dehydration depending upon the number of cryosections within the cryochamber. After dehydration was complete, the cryosections were transferred to ambient temperature for processing. Mounted whole-body cryosections and a set of 15 standards were sandwiched between a standard phosphor screen and an exposure cassette. All cryosections were exposed to the phosphor screen for 4-days in a cabinet protected with lead prior to scanning using a Typhoon PhosphorImager (Cytiva). MCID™ Analysis software (InterFocus Ltd.) was utilized to generate a calibration curve of the STD nominal concentrations (nCi/g) versus PhosphorImager response (counts/μm^2 minus background) by weighted (1/x) linear regression analysis ([Potchoiba et al., 1995]; [Potchoiba et al., 1998]). The linear regression curve was then utilized to determine the concentration (nCi/g) of total radioactivity in whole-body tissues and blood. Radioactivity concentrations were expressed as μg Eq/g based on the specific activity of the compound in the final dose formulations. […]

[1] = 48 hr post 15 daily oral 100 mg/kg
[2] = 96 hr post 15 daily oral 100 mg/kg

SMILES: CC/C=C\C/C=C\C/C=C\C/C=C\C/C=C\C/C=C\CCC(=O)O[C@H](CO[14CH2]CCCCCCCCCCCCCCC)COC(=O)CCCCC1CCSS1 (some centres unmarked) [[^14C]PPI-1011]
- Radioactivity concentration, Colliculus [1]: 68.0 μg equivalents/g
- Radioactivity concentration, Diaphragm [1]: 172 μg equivalents/g
- Radioactivity concentration, Esophagus [1]: 94.8 μg equivalents/g
- Radioactivity concentration, Exorbital Lacrimal Gland [1]: 82.5 μg equivalents/g
- Radioactivity concentration, Gastric Mucosa [1]: 307 μg equivalents/g
- Radioactivity concentration, Harderian Gland [1]: 69.6 μg equivalents/g
- Radioactivity concentration, Intra-Orbital Lacrimal Gland [1]: 84.5 μg equivalents/g
- Radioactivity concentration, Kidney [1]: 221 μg equivalents/g
- Radioactivity concentration, Large Intestines [1]: 122 μg equivalents/g
- Radioactivity concentration, Liver [1]: 186 μg equivalents/g
- Radioactivity concentration, Lung [1]: 181 μg equivalents/g
- Radioactivity concentration, Lymph Node [1]: 165 μg equivalents/g
- Radioactivity concentration, Medulla Oblongata [1]: 48.4 μg equivalents/g
- Radioactivity concentration, Muscle [1]: 95.4 μg equivalents/g
- Radioactivity concentration, Myocardium [1]: 222 μg equivalents/g
- Radioactivity concentration, Nasal Turbinates [1]: 184 μg equivalents/g
- Radioactivity concentration, Ocular - Lens [1]: 5.05 μg equivalents/g
- Radioactivity concentration, Ocular - Uveal Tract [1]: 59.6 μg equivalents/g
- Radioactivity concentration, Ocular - Vitreous Body [1]: 2.01 μg equivalents/g
- Radioactivity concentration, Ocular - Whole Eye [1]: 15.8 μg equivalents/g
- Radioactivity concentration, Olfactory Bulb [1]: 35.0 μg equivalents/g
- Radioactivity concentration, Pancreas [1]: 312 μg equivalents/g
- Radioactivity concentration, Parotid Gland [1]: 257 μg equivalents/g
- Radioactivity concentration, Pineal Gland [1]: 156 μg equivalents/g
- Radioactivity concentration, Pituitary Gland [1]: 226 μg equivalents/g
- Radioactivity concentration, Prostate [1]: 72.1 μg equivalents/g
- Radioactivity concentration, Renal Cortex [1]: 244 μg equivalents/g
- Radioactivity concentration, Renal Medulla [1]: 183 μg equivalents/g
- Radioactivity concentration, Salivary Gland [1]: 271 μg equivalents/g
- Radioactivity concentration, Seminal Vesicles [1]: 60.7 μg equivalents/g
- Radioactivity concentration, Skin - Non-Pigmented [1]: 101 μg equivalents/g
- Radioactivity concentration, Small Intestines [1]: 164 μg equivalents/g
- Radioactivity concentration, Spinal Cord [1]: 51.2 μg equivalents/g
- Radioactivity concentration, Spleen [1]: 209 μg equivalents/g
- Radioactivity concentration, Stomach [1]: 78.9 μg equivalents/g
- Radioactivity concentration, Testis [1]: 47.2 μg equivalents/g
- Radioactivity concentration, Thalamus [1]: 42.3 μg equivalents/g
- Radioactivity concentration, Thymus [1]: 131 μg equivalents/g
- Radioactivity concentration, Thyroid [1]: 297 μg equivalents/g
- Radioactivity concentration, Whole Brain [1]: 43.7 μg equivalents/g
- Radioactivity concentration, Adipose - Brown [2]: 1301 μg equivalents/g
- Radioactivity concentration, Adipose - Brown (Vessel Wall) [2]: 1249 μg equivalents/g
- Radioactivity concentration, Adipose - Subcutaneous [2]: 1373 μg equivalents/g
- Radioactivity concentration, Adipose - Visceral [2]: 1265 μg equivalents/g
- Radioactivity concentration, Adrenal Gland [2]: 1636 μg equivalents/g
- Radioactivity concentration, Bladder Wall [2]: 101 μg equivalents/g
- Radioactivity concentration, Blood - QWBA [2]: 29.5 μg equivalents/g
- Radioactivity concentration, Bone Marrow [2]: 77.3 μg equivalents/g
- Radioactivity concentration, Bone Surface [2]: 10.5 μg equivalents/g
- Radioactivity concentration, Cerebellum [2]: 55.8 μg equivalents/g
- Radioactivity concentration, Cerebrum [2]: 47.5 μg equivalents/g
- Radioactivity concentration, Choroid Plexus [2]: 121 μg equivalents/g
- Radioactivity concentration, Colliculus [2]: 67.3 μg equivalents/g
- Radioactivity concentration, Diaphragm [2]: 125 μg equivalents/g
- Radioactivity concentration, Esophagus [2]: 87.1 μg equivalents/g
- Radioactivity concentration, Exorbital Lacrimal Gland [2]: 71.0 μg equivalents/g
- Radioactivity concentration, Gastric Mucosa [2]: 210 μg equivalents/g
- Radioactivity concentration, Harderian Gland [2]: 47.9 μg equivalents/g
- Radioactivity concentration, Intra-Orbital Lacrimal Gland [2]: 76.5 μg equivalents/g
- Radioactivity concentration, Kidney [2]: 238 μg equivalents/g
- Radioactivity concentration, Large Intestines [2]: 94.3 μg equivalents/g
- Radioactivity concentration, Liver [2]: 129 μg equivalents/g
- Radioactivity concentration, Lung [2]: 191 μg equivalents/g
- Radioactivity concentration, Lymph Node [2]: 127 μg equivalents/g
- Radioactivity concentration, Medulla Oblongata [2]: 51.8 μg equivalents/g
- Radioactivity concentration, Muscle [2]: 97.9 μg equivalents/g
- Radioactivity concentration, Myocardium [2]: 172 μg equivalents/g
- Radioactivity concentration, Nasal Turbinates [2]: 80.2 μg equivalents/g
- Radioactivity concentration, Ocular - Lens [2]: 6.92 μg equivalents/g
- Radioactivity concentration, Ocular - Uveal Tract [2]: 68.9 μg equivalents/g
- Radioactivity concentration, Ocular - Vitreous Body [2]: 2.06 μg equivalents/g
- Radioactivity concentration, Ocular - Whole Eye [2]: 18.2 μg equivalents/g
- Radioactivity concentration, Olfactory Bulb [2]: 42.2 μg equivalents/g
- Radioactivity concentration, Pancreas [2]: 333 μg equivalents/g
- Radioactivity concentration, Parotid Gland [2]: 220 μg equivalents/g
- Radioactivity concentration, Pineal Gland [2]: 179 μg equivalents/g
- Radioactivity concentration, Pituitary Gland [2]: 191 μg equivalents/g
- Radioactivity concentration, Prostate [2]: 84.8 μg equivalents/g
- Radioactivity concentration, Renal Cortex [2]: 250 μg equivalents/g
- Radioactivity concentration, Renal Medulla [2]: 186 μg equivalents/g
- Radioactivity concentration, Salivary Gland [2]: 227 μg equivalents/g
- Radioactivity concentration, Seminal Vesicles [2]: 54.7 μg equivalents/g
- Radioactivity concentration, Skin - Non-Pigmented [2]: 129 μg equivalents/g
- Radioactivity concentration, Small Intestines [2]: 112 μg equivalents/g
- Radioactivity concentration, Spinal Cord [2]: 53.0 μg equivalents/g
- Radioactivity concentration, Spleen [2]: 147 μg equivalents/g
- Radioactivity concentration, Stomach [2]: 109 μg equivalents/g
- Radioactivity concentration, Testis [2]: 43.3 μg equivalents/g
- Radioactivity concentration, Thalamus [2]: 45.4 μg equivalents/g
- Radioactivity concentration, Thymus [2]: 107 μg equivalents/g
- Radioactivity concentration, Thyroid [2]: 259 μg equivalents/g
- Radioactivity concentration, Whole Brain [2]: 47.3 μg equivalents/g
- Decline of radioactivity from peak concentration, subcutaneous adipose (by 96 HPD, 15 daily doses): ~1.1 fold
- Decline of radioactivity from peak concentration, visceral adipose (by 96 HPD, 15 daily doses): ~1.2 fold
- Uptake in the brain following 15 doses versus single dose, on average (rat, in vivo): 16-18 times
